How the values were obtained:
Assay in all cases: relative viability (nuclei count vs DMSO), 5 days (fraction); higher = more cells survive
DM3189 + Bortezomib = compound: C1CN(CCN1)C2=CC=C(C=C2)C3=CN4C(=C(C=N4)C5=CC=NC6=CC=CC=C56)N=C3 [DM3189] + CC(C)C[C@H](NC(=O)[C@H](Cc1ccccc1)NC(=O)c1cnccn1)B(O)O [Bortezomib] (partner 0.002 µM)
Method in brief: (§1)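 Lung cancer cell lines, seeded in 1536-well plates, were treated the following day by pin tool with a single drug or with five library-drug doses (not always all listed) in √10 steps on top of a fixed anchor-drug dose. Cells were fixed and nuclei stained in one step after 5 days, and nuclei were counted. Relative viability is the nuclei count for treated wells divided by that for vehicle wells, reported as medians of duplicate plates.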

DM3189 + Pictilisib = compound: C1CN(CCN1)C2=CC=C(C=C2)C3=CN4C(=C(C=N4)C5=CC=NC6=CC=CC=C56)N=C3 [DM3189] + CS(=O)(=O)N1CCN(Cc2cc3nc(-c4cccc5[nH]ncc45)nc(N4CCOCC4)c3s2)CC1 [Pictilisib] (partner 1 µM)
Method in brief: as §1

DM3189 + Crizotinib = compound: C1CN(CCN1)C2=CC=C(C=C2)C3=CN4C(=C(C=N4)C5=CC=NC6=CC=CC=C56)N=C3 [DM3189] + C[C@@H](Oc1cc(-c2cnn(C3CCNCC3)c2)cnc1N)c1c(Cl)ccc(F)c1Cl [Crizotinib] (partner 1 µM)
Method in brief: as §1

DM3189 + Linsitinib = compound: C1CN(CCN1)C2=CC=C(C=C2)C3=CN4C(=C(C=N4)C5=CC=NC6=CC=CC=C56)N=C3 [DM3189] + C[C@]1(O)C[C@@H](c2nc(-c3ccc4ccc(-c5ccccc5)nc4c3)c3c(N)nccn32)C1 [Linsitinib] (partner 1 µM)
Method in brief: as §1

DM3189 + Alpelisib = compound: C1CN(CCN1)C2=CC=C(C=C2)C3=CN4C(=C(C=N4)C5=CC=NC6=CC=CC=C56)N=C3 [DM3189] + Cc1nc(NC(=O)N2CCC[C@H]2C(N)=O)sc1-c1ccnc(C(C)(C)C(F)(F)F)c1 [Alpelisib] (partner 2 µM)
Method in brief: as §1

Cell Line	relative viability (DM3189 + Bortezomib; first compound 0.08 µM)	relative viability (DM3189 + Bortezomib; first compound 0.253 µM)	relative viability (DM3189 + Bortezomib; first compound 0.8 µM)	relative viability (DM3189 + Bortezomib; first compound 2.53 µM)	relative viability (DM3189 + Pictilisib; first compound 0.08 µM)	relative viability (DM3189 + Pictilisib; first compound 0.253 µM)	relative viability (DM3189 + Pictilisib; first compound 0.8 µM)	relative viability (DM3189 + Pictilisib; first compound 2.53 µM)	relative viability (DM3189 + Crizotinib; first compound 0.08 µM)	relative viability (DM3189 + Crizotinib; first compound 0.253 µM)	relative viability (DM3189 + Crizotinib; first compound 0.8 µM)	relative viability (DM3189 + Crizotinib; first compound 2.53 µM)	relative viability (DM3189 + Linsitinib; first compound 0.08 µM)	relative viability (DM3189 + Linsitinib; first compound 0.253 µM)	relative viability (DM3189 + Linsitinib; first compound 0.8 µM)	relative viability (DM3189 + Linsitinib; first compound 2.53 µM)	relative viability (DM3189 + Alpelisib; first compound 0.08 µM)	relative viability (DM3189 + Alpelisib; first compound 0.253 µM)	relative viability (DM3189 + Alpelisib; first compound 0.8 µM)	relative viability (DM3189 + Alpelisib; first compound 2.53 µM)
LXF-289	1	0.929	0.988	1.11	0.834	0.773	0.775	0.935	0.796	0.793	0.781	0.947	0.977	0.939	0.908	1.06	1.03	1.03	1.01	1.14
NCI-H23	1.18	0.825	0.928	1.02	0.637	0.462	0.385	0.442	0.545	0.491	0.442	0.579	0.649	0.588	0.445	0.742	0.768	0.741	0.675	0.699
NCI-H322M	1.25	1.38	1.19	1.23	0.565	0.526	0.462	0.447	1.06	0.848	0.872	0.924	0.891	0.863	0.921	0.977	0.734	0.867	0.805	0.884
NCI-H441	0.656	0.604	0.447	0.645	0.51	0.563	0.42	0.409	0.951	0.751	0.737	0.924	0.587	0.511	0.518	0.548	0.877	0.595	0.837	0.467
NCI-H460	1.19	1.07	1.06	0.255	0.387	0.464	0.223	0.43	0.839	0.939	0.96	1.02	1.21	0.879	0.708	0.353	0.507	0.567	0.44	0.184
NCI-H520	0.503	0.345	0.429	0.368	0.28	0.234	0.219	0.19	0.752	0.748	0.485	0.303	0.995	0.863	0.706	0.554	0.837	0.633	0.637	0.48
NCI-H596	1.34	0.969	1.03	1.28	0.419	0.247	0.412	0.407	1.15	1.01	0.93	0.943	1.15	1.13	1.05	1.14	0.578	0.517	0.386	0.478
NCI-H647	1.08	0.871	0.667	0.35	0.381	0.334	–	0.381	1.12	0.877	0.883	0.307	0.966	0.946	1	1.17	1.01	0.704	0.659	0.179
NCI-H650	1	0.765	0.635	0.655	0.976	0.888	0.741	0.845	0.754	0.575	0.594	0.661	1.12	0.84	0.659	0.763	1.35	1.07	0.975	0.915
NCI-H661	0.931	0.997	1.06	1.14	0.44	0.453	0.509	0.389	1	1.01	0.949	1.08	0.606	0.675	0.734	0.747	0.817	0.802	0.674	0.814
NCI-H727	1.07	0.854	–	0.716	0.593	0.347	–	0.227	0.889	0.821	–	0.737	0.255	0.326	–	0.259	0.638	0.503	–	0.56
NCI-H838	1	0.64	0.633	0.92	0.521	0.35	0.317	0.397	0.752	0.815	0.531	0.732	0.969	0.918	0.716	0.87	0.965	0.981	0.749	0.989
NCI-H1355	1.21	1.22	0.992	1.17	0.539	0.399	0.311	0.362	1.14	1.12	0.955	0.971	0.785	0.793	0.663	0.738	0.884	0.81	0.678	0.812
NCI-H1437	0.601	0.442	0.543	0.628	0.425	0.438	0.411	0.537	0.904	0.898	0.832	0.831	1.05	1.06	0.966	0.893	0.837	0.931	0.855	0.905
NCI-H1563	0.945	0.762	0.887	1.07	0.635	0.622	0.625	0.616	0.944	0.865	0.833	0.899	1.2	1.22	1.13	1.25	0.909	0.896	0.949	0.839
NCI-H1651	1.04	0.984	0.908	0.971	0.713	0.578	0.467	0.468	0.857	0.886	0.878	0.957	1.09	1.02	1.21	0.991	1.23	0.986	0.924	0.797

Cell Line	relative viability (DM3189 + Bortezomib; first compound 0.08 µM)	relative viability (DM3189 + Bortezomib; first compound 0.253 µM)	relative viability (DM3189 + Bortezomib; first compound 0.8 µM)	relative viability (DM3189 + Bortezomib; first compound 2.53 µM)	relative viability (DM3189 + Pictilisib; first compound 0.08 µM)	relative viability (DM3189 + Pictilisib; first compound 0.253 µM)	relative viability (DM3189 + Pictilisib; first compound 0.8 µM)	relative viability (DM3189 + Pictilisib; first compound 2.53 µM)	relative viability (DM3189 + Crizotinib; first compound 0.08 µM)	relative viability (DM3189 + Crizotinib; first compound 0.253 µM)	relative viability (DM3189 + Crizotinib; first compound 0.8 µM)	relative viability (DM3189 + Crizotinib; first compound 2.53 µM)	relative viability (DM3189 + Linsitinib; first compound 0.08 µM)	relative viability (DM3189 + Linsitinib; first compound 0.253 µM)	relative viability (DM3189 + Linsitinib; first compound 0.8 µM)	relative viability (DM3189 + Linsitinib; first compound 2.53 µM)	relative viability (DM3189 + Alpelisib; first compound 0.08 µM)	relative viability (DM3189 + Alpelisib; first compound 0.253 µM)	relative viability (DM3189 + Alpelisib; first compound 0.8 µM)	relative viability (DM3189 + Alpelisib; first compound 2.53 µM)
NCI-H1666	0.853	0.783	0.898	0.91	0.439	0.595	0.508	0.437	1.07	1.01	0.965	0.8	0.861	0.808	0.842	1.04	1.04	1.17	1.07	0.793
NCI-H1703	0.365	0.292	0.326	0.298	0.28	0.205	0.257	0.257	0.763	0.747	0.524	0.548	0.597	0.635	0.575	0.693	0.389	0.366	0.384	0.285
NCI-H1734	1.02	0.982	0.778	0.775	0.541	0.417	0.442	0.383	0.585	0.695	0.676	0.657	1.01	0.981	0.814	0.968	0.677	0.706	0.635	0.661
NCI-H1755	0.95	0.878	0.807	0.505	0.51	0.417	0.334	0.399	0.768	0.837	0.736	0.818	1.02	0.911	0.881	0.934	0.848	0.877	0.815	0.926
NCI-H1792	0.838	0.926	0.852	0.656	0.228	0.248	0.165	0.271	0.861	0.992	0.887	0.441	0.409	0.532	0.449	0.315	0.545	0.682	0.624	0.401
NCI-H1915	1.04	0.904	0.83	0.88	0.974	0.915	0.646	0.891	0.879	0.79	0.808	0.783	1.12	1.05	0.928	1.11	1.09	0.973	0.898	1.04
NCI-H1975	0.454	0.371	0.297	0.353	0.42	0.309	0.269	0.201	1.1	0.928	0.819	0.647	1.18	0.955	0.929	0.727	0.869	0.718	0.658	0.342
NCI-H1993	–	0.915	1.17	1.27	–	0.85	0.852	0.718	–	0.846	0.744	0.991	–	0.616	0.641	0.706	–	0.671	0.641	0.7
NCI-H2009	1.24	1.04	0.782	0.984	1	0.725	0.572	0.75	1.07	1.03	0.933	0.922	1.24	1.21	1.11	1.29	1.17	1.16	1.13	1.15
NCI-H2023	1.12	0.961	0.823	0.514	0.26	0.24	0.201	0.235	0.68	0.729	0.631	0.502	0.683	0.694	0.496	0.667	0.586	0.633	0.574	0.63
NCI-H2085	1.08	1.04	1.03	0.958	0.379	0.473	0.393	0.409	0.941	0.807	0.872	0.752	0.932	0.858	0.973	0.946	0.968	0.962	0.976	0.893
NCI-H2087	1.1	0.774	0.768	0.736	1.06	0.808	0.675	0.818	0.894	0.695	0.788	0.79	1.06	0.909	1.11	0.969	1.31	1.07	1.01	1.03
NCI-H2126	1.19	1.18	1.19	1.12	0.544	0.53	0.465	0.478	1.07	0.989	0.98	1.06	0.708	0.799	0.779	0.799	0.838	0.745	0.763	0.805
NCI-H2228	1.19	1.12	0.847	0.659	0.362	0.33	0.329	0.283	0.695	0.363	0.385	0.14	0.68	0.763	0.572	0.66	0.683	0.79	0.513	0.211
NCI-H2347	1.08	0.91	0.944	1.17	0.493	0.452	0.569	0.517	0.692	0.761	0.67	0.675	0.98	1	0.907	0.97	0.969	1	0.989	1.14
